# Test results as given in article PMC11011246 (Cell, 2024).
# How the values were obtained:
# [1] = system: NrasG12V Trp53-/- HCC cells; assay: HCC cell proliferation and trypan blue cell death; assay type: cell-based, murine; settings: HRX215 10 μM vs DMSO, up to 72 h
# C57BL/6 WT mice [2] = assay: Partial hepatectomy in wildtype mice; settings: 48 h after partial hepatectomy
# [3] = 4-week GLP toxicity study; settings: both, Wistar Han, rat, in vivo, po
# C57BL/6 WT mice [4] = assay: Short-term GAN-NASH model; assay type: in vivo, mouse; settings: 10 mg/kg daily, 12 weeks, vs vehicle
# pigs = assay: 85% hepatectomy; assay type: in vivo, pig
# C57BL/6 WT mice [5] = assay: CCl4 liver-damage; settings: 10 mg/kg p.o., CCl4 3 weeks, 48 h after PH
# [6] = 4-week GLP toxicity study; settings: both, beagle, dog, in vivo, po
# [7] = First-in-human phase I trial, pharmacokinetics; assay type: in vivo; settings: for Tmax: male, plasma, oral, 50 mg, 50 mg single dose
# C57BL/6 WT mice [8] = assay: 4-week treatment/toxicity study in wildtype mice; assay type: in vivo, mouse; settings: 10 mg/kg, vs vehicle
# C57BL/6 WT mice [9] = assay: Short-term CCl4 liver damage model; assay type: in vivo, mouse; settings: 0.4, 2, 10 mg/kg p.o., 48 h after CCl4, vs vehicle
# [10] = Pharmacokinetics of HRX215 in mice; assay type: in vivo, C57BL/6 wildtype mice; settings: 30 mg/kg p.o.
# C57BL/6 WT mice [11] = assay: Long-term GAN-NASH HCC model; assay type: in vivo, mouse
# [12] = IND-enabling GLP safety pharmacology; assay type: in vivo, rats, dogs; settings: GLP studies
# [13] = system: NrasG12V Cdkn2aARF-/- HCC cells; assay: HCC cell proliferation and trypan blue cell death; assay type: cell-based, murine; settings: HRX215 10 μM vs DMSO, up to 72 h
# healthy male volunteers = assay: First-in-human phase I trial, safety and tolerability; assay type: in vivo
compound,measurement,setting,value
CCCS(=O)(=O)Nc1c(F)ccc(C(=O)c2n[nH]c3ncc(-c4ccncc4)cc23)c1F [HRX215],cell proliferation,[1],significantly reduced cell proliferation
same,proliferating hepatocytes (Ki67),C57BL/6 WT mice [2]; 0.4 mg/kg p.o.,15.38%
same,proliferating hepatocytes (Ki67),C57BL/6 WT mice [2]; 2 mg/kg p.o.,15.15%
same,proliferating hepatocytes (Ki67),C57BL/6 WT mice [2]; 10 mg/kg p.o.,26.3%
same,NOAEL at 4 weeks,[3],300 mg/kg/day
same,numbers of senescent cells in NASH livers,C57BL/6 WT mice [4],found no differences
same,aspartate aminotransferase,"pigs; pigs, 85% hepatectomy",only transiently increased after surgery
same,bilirubin plasma levels,"pigs; pigs, 85% hepatectomy",only a transient rise with a subsequent drop
same,intracranial pressure (ICP) after surgery,"pigs; pigs, 85% hepatectomy",did not show an increase in ICP values
same,plasma ammonia,"pigs; pigs, 85% hepatectomy",prevented an increase of plasma ammonium
same,animals with normal behavior that survived,pigs; post-surgery treatment group (start 12 h after surgery),5 out of 6
same,animals with normal behavior that survived,pigs; pre-surgery treatment group (start 12 h before surgery),4 out of 6
same,hepatocyte proliferation upon partial hepatectomy in fibrotic livers,C57BL/6 WT mice [5],enhance hepatocyte proliferation
same,NOAEL at 4 weeks,[6],250 mg/kg/day
same,exposure (Cmax and AUC) versus dose,[7]; ascending doses,increased proportionally with ascending doses
same,Tmax,[7]; fasting,1.2 h
same,Tmax,[7]; fed,3.9 h
same,complete blood counts,C57BL/6 WT mice [8]; 4 weeks,No significant changes were detected
same,untargeted metabolomics of plasma and liver,C57BL/6 WT mice [8],no safety relevant changes were detected
same,hepatocyte death (TUNEL),C57BL/6 WT mice [9],significantly reduced hepatocyte death
same,"t(1/2), elimination half-life",[10],3.4 to 3.9 h
same,hepatic inflammation and hepatocyte ballooning,"C57BL/6 WT mice [11]; 10 mg/kg daily, 12 weeks",no reduction of hepatic inflammation and hepatocyte ballooning
same,hepatocyte proliferation (Ki67),"C57BL/6 WT mice [11]; 10 mg/kg daily, 12 weeks",slightly increased hepatocyte proliferation
same,liver fibrosis,"C57BL/6 WT mice [11]; 10 mg/kg daily, 12 weeks","found reduced in HRX215 treated livers, but results missed statistical significance"
same,overall hepatic lipid content,"C57BL/6 WT mice [11]; 10 mg/kg daily, 12 weeks",significant reduction of the overall hepatic lipid content
same,tumor size,"C57BL/6 WT mice [11]; 10 mg/kg daily, 12 weeks",tendency toward a reduction of tumor size
same,number of tumor nodules per liver,"C57BL/6 WT mice [11]; 10 mg/kg daily, 12 weeks, vs baseline and vehicle",did not result in a higher number of tumor nodules per liver
same,numbers of dysplastic premalignant lesions,"C57BL/6 WT mice [11]; 10 mg/kg daily, 12 weeks, vs vehicle",did not reveal significant differences
same,NAS score development,C57BL/6 WT mice [11]; non-tumor bearing liver parts,more animals with an improved NAS score and less animals with a worsened NAS score
same,"effect on the cardiovascular, neurological, or respiratory system",[12],absence of any effect
same,cell proliferation,[13],significantly reduced cell proliferation
same,"mild to moderate adverse effects, percentage","healthy male volunteers; HRX215 groups, n = 36",36.1%
same,number of mild to moderate adverse effects (subjects/group),"healthy male volunteers; HRX215 groups, n = 36",13/36
same,severe or serious adverse events,healthy male volunteers; single and multiple doses 5-500 mg,no severe or serious adverse events were reported
same,complete blood counts,healthy male volunteers; vs placebo,no significant differences
